Laboratory results from PubChem BioAssay (NCI).
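At the GI50, growth is halved. Definition used: TGI = concentration required for complete inhibition of growth.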

Legend:
Experiment in all cases: inhibition of tumour cell growth, NCI panel, 384-well format
HT29 colon = tested on: HT29 colon
SK-MEL-28 melanoma = tested on: SK-MEL-28 melanoma
ACHN renal = tested on: ACHN renal
NCI-H226 lung = tested on: NCI-H226 lung
SF-295 CNS = tested on: SF-295 CNS
MCF7 breast = tested on: MCF7 breast
HCT-116 colon = tested on: HCT-116 colon
HS 578T breast = tested on: HS 578T breast
U251 glioblastoma = tested on: U251 glioblastoma
RXF 393 renal = tested on: RXF 393 renal
786-0 renal = tested on: 786-0 renal
SK-OV-3 ovarian = tested on: SK-OV-3 ovarian
CAKI-1 renal = tested on: CAKI-1 renal

With `CCS(=O)(=O)N1CCC(C(C)n2c(C)c(C(=O)NCc3c(OC)cc(C)[nH]c3=O)c3ccccc32)CC1` (stereo unspecified) as the molecule, how does the GI50 (HT29 colon) read?
Its GI50 is > 100 µM.

What about the TGI (HT29 colon) of the same molecule?
Its TGI is > 100 µM.

What about the GI50 (SK-MEL-28 melanoma) of the same molecule?
Its GI50 is > 100 µM.

And the TGI (SK-MEL-28 melanoma)?
The TGI was > 100 µM.

What about the GI50 (ACHN renal) of the same molecule?
The GI50 was > 100 µM.

And the TGI (ACHN renal)?
Its TGI is > 100 µM.

And the GI50 (NCI-H226 lung)?
Its GI50 is > 100 µM.

And the TGI (NCI-H226 lung)?
Its TGI is > 100 µM.

What about the GI50 (SF-295 CNS) of the same molecule?
The GI50 was > 100 µM.

What about the TGI (SF-295 CNS) of the same molecule?
Its TGI is > 100 µM.

What about the GI50 (MCF7 breast) of the same molecule?
The GI50 was > 78.3 µM.

What about the TGI (MCF7 breast) of the same molecule?
Its TGI is > 100 µM.

What about the GI50 (HCT-116 colon) of the same molecule?
Its GI50 is > 100 µM.

What about the TGI (HCT-116 colon) of the same molecule?
The TGI was > 100 µM.

And the GI50 (HS 578T breast)?
Its GI50 is > 100 µM.

What about the TGI (HS 578T breast) of the same molecule?
Its TGI is > 100 µM.

What about the GI50 (U251 glioblastoma) of the same molecule?
The GI50 was > 100 µM.

And the TGI (U251 glioblastoma)?
Its TGI is > 100 µM.

What about the GI50 (RXF 393 renal) of the same molecule?
The GI50 was > 100 µM.

What about the TGI (RXF 393 renal) of the same molecule?
The TGI was > 100 µM.

And the GI50 (786-0 renal)?
The GI50 was > 100 µM.

And the TGI (786-0 renal)?
The TGI was > 100 µM.

And the GI50 (SK-OV-3 ovarian)?
Its GI50 is > 100 µM.

And the TGI (SK-OV-3 ovarian)?
The TGI was > 100 µM.

And the GI50 (CAKI-1 renal)?
Its GI50 is > 100 µM.

What about the TGI (CAKI-1 renal) of the same molecule?
Its TGI is > 100 µM.
